In patent US20230346743A1, “COMBINATION CANCER THERAPIES” (The Board of Regents of the University of Oklahoma, priority 2018, published 2023):

Legend:
[1] = tested on: p21; test: Western blots of p21 in ovarian cancer cell lines; assay type: cell-based, human; conditions: A2780, SKOV3, SKOV3 R273H, SKOV3 R248W
Procedure: Proteins were extracted from cell cultures using M-PER mammalian protein extraction reagent (ThermoFisher, Waltham, MA, USA) and volumes corresponding to 30 µg determined with BCA reagent (ThermoFisher, Waltham, MA, USA) were electrophoresed into a SDS-PAGE gel and transferred to PVDF membranes. Membranes were blocked (5% dry skim milk powder in TBST buffer) for at least 1 h or overnight, washed thrice with TBST and then incubated with primary antibody: p53 DO-1, β-actin, histone H3, GAPDH (Santa Cruz Biotechnology, Dallas, TX, USA) and mortalin, Tom20, V5 tag antibodies, p21, PARP, SLC7A11, caspase 3 (Cell Signaling Technology, Danvers, MA, USA) for at least 1 h or overnight. After three washes, membranes were incubated with anti-mouse HRP conjugated (Santa Cruz Biotechnology, Dallas, TX, USA) or anti-Rabbit HRP conjugated (Cell Signaling Technology, Danvers, MA, USA) for 40 min. Membranes then were washed and developed with ECL reagents (BioRad, Hercules, CA, USA). Bands were imaged and quantified (ChemiDoc imaging system with Image Lab Software/BioRad).

[2] = Toxicity in the MESOV mouse model (body weight, ascites, kidney and liver histology); assay type: in vivo; conditions: mouse, in vivo, ip
Procedure: Four-week-old female athymic nude mice (NCr-Foxn1^nu) were obtained from Taconic Biosciences under an approved Institutional Animal Care and Use Committee (IACUC) protocol. Mice were acclimatized for two weeks, fed with a standard diet and ear tagged during the acclimatization period. The timing to tumor development after intraperitoneal injection with various amounts of MESOV cells was determined in a pilot study prior. In the intervention experiment, 6-week-old mice were injected with 20 million MESOV human ovarian cancer cells in their intraperitoneal region. Drug treatment was initiated 4 weeks after the injection of cancer cells. Mice were randomized to four treatment groups before the start of treatment based on their body weight. There was no significant (one-way ANOVA, p >0.999) difference in body weight between groups at the start of treatment. Twelve mice were allocated to each group based on the power analysis performed while designing experiment. The sample size was determined to provide over 80% power to detect a 915 mm^3 difference in tumor volume between PRIMA-1^MET treatment alone and the drug combination treatment using a two-sided 0.05 level t-test. SHetA2 was administered by gavage at 60 mg/kg in 30% Kolliphor HS15 (Sigma). Controls were gavaged with Kolliphor HS15 (30% in water). PRIMA-1^MET (10 mg/kg) was dissolved in phosphate buffered saline and injected into the peritoneum of mice every other day. Initially SHetA2 dosing was administered every day for two weeks in SHetA2 alone and drug combination groups, and then switched to every other day for the next three weeks due to the stress caused to the mice by daily gavage. Oral gavaging was performed with sterile disposable plastic feeding tubes 20 ga × 38 mm (Instech Laboratories, Inc., Plymouth Meeting, PA, USA). Three mice in the drug combination group died after two weeks of drug treatment due to gavaging incidents. Body weights were recorded and animal health was monitored weekly. After the end of drug intervention period, all mice were euthanized by CO2 asphyxiation followed by exsanguination, their tumors and other vital organs were collected for further analysis. After measuring the total tumor weight, a portion of the tumors were snap frozen in liquid nitrogen and another portion was formalin fixed. The formalin fixed tissue samples were paraffin embedded, sectioned and stained with hematoxylin and eosins for histology studies. An experienced pathologist reviewed blinded histology slides for kidney and liver toxicity.

[3] = tested on: Cervical Cancer; test: Dose reduction index at various fold effects in cervical cancer; assay type: cell-based, human; conditions: cell line not named
Text: Combination Indices (CI's) were derived to determine the level of synergy using the Chow and Talalay method. […] The Dose Reduction Indices (DRIs) were derived to determine the level of reduction for one drug that could be allowed by addition of the second drug at various fold effects (Fas) of the combination treatment (Table 16).

[4] = tested on: FTSECs; test: MTT cytotoxicity assay and Chou-Talalay drug interaction; assay type: cell-based, human; conditions: hFTSECs
Procedure: (§1) Cells plated at 2000 cells/well in 96 well microtiter plates were incubated for 36-48 h and treated with a range of doses and combinations of SHetA2 and PRIMA-1 or PRIMA-1^MET, or the same volume of DMSO solvent for 72 h of incubation. The percentage of growth for single drug treatments or fold effect (1 - ratio of treated/untreated growth) was measured using the CellTiter 96 AQueous Non-Radioactive Cell Proliferation Assay (Promega, Madison, WI, USA) and the BioTeK SYNERGY H1 (BioTeK, Winooski, VT, USA). Each experiment was performed in triplicate and repeated 2-3 times.
(§2) The potencies (IC50′s) of SHetA2 or PRIMA-1 were determined using GraphPad Prism 6 software analysis of average MTT Optical Density vs drug dose. […] Single drug treatments at doses surrounding the IC50 values were evaluated parallel. All treatments were performed in triplicate and averages used to draw isobolograms and calculate combination indices (CI) and dose-reduction indices (DRIs) using CompuSyn Software according to the Chou and Talalay method (op cit). All experiments were repeated at least twice for each cell line to confirm results.

[5] = tested on: A2780 (WT p53); test: as above; assay type: cell-based, human
Procedure: as §1, §2

In the case of `CC1(C)CC(C)(C)c2cc(NC(=S)Nc3ccc([N+](=O)[O-])cc3)ccc2S1` [SHetA2], the “p21 protein (Western blot)” value [1] is reported as “increased p21 protein in all cell lines evaluated regardless of p53 status”, the “Effects on body weight or ascites (abdominal size)” value [2] is reported as “no significant effects on body weight or ascites” and the “Kidney or liver toxicity (H & E histology)” value [2] is reported as “did not cause kidney or liver toxicity”. The “SHetA2 Dose” value ([3]; Fold Effect (Fa) 0.05) was 5.44, the “SHetA2 Dose” value ([3]; Fold Effect (Fa) 0.75) was 8.23 and the “SHetA2 Dose” value ([3]; Fold Effect (Fa) 0.90) was 12.43. The “SHetA2 Dose” value ([3]; Fold Effect (Fa) 0.95) was 16.47, the “SHetA2 sensitivity compared with ovarian cancer cell lines” value [4] was “least sensitive” and the IC50 ([5]; A2780 cells with shRNA knockdown of p53, MTT) was 4.8 µM. For the same compound, the IC50 ([5]; A2780 cells without p53 knockdown (empty vector), MTT) was 2.8 µM.
